The target in series [1] is T1, RET M918T (Homo sapiens, UniProt P07949, M918T).
T1 construct: purchased Carna 08-508
The series can be described thus: HTRF kinase assay, RET M918T. Format: biochemical. The settings on record: ATP at Km. The text has this:
(§1) • RET enzyme was purchased from Carna Company, and the article number was 08-159; • RET M918T enzyme was purchased from Carna Company, and the article number was 08-508; • KIF5B-RET was purchased from SignalChem Company, the article number was R02-19FG-05; • CCDC6-RET was purchased from SignalChem Company, the article number was R02-19BG-05; • RET V804M enzyme was purchased from Thermofisher Company, and the article number was PV6223; • RET V804L enzyme was purchased from Thermofisher Company, and the article number was PV4397; • HTRF KinEASE-TK kit was purchased from Cisbio Company, and the article number was 62TK0PEC; • ATP was purchased from Thermofisher Company, and the article number was PV3227; • 384-well plate was purchased from PerkinElmer Company, and the article number was 6007290.
(§2) In this experiment, the homogeneous time-resolved fluorescence (HTRF) method was used for the detection of compounds on RET kinase activity.

Series [2] concerns TT cells (MTC, RET C634W). The series can be described thus: TT cell proliferation (CellTiter-Glo). Format: cell-based, human. The settings on record: Homo sapiens, TT, 72 h. The procedure: When TT cells were cultured to the appropriate fusion level, TT cells were collected, and the cells were adjusted to the appropriate cell concentration using complete medium, and the cell suspension was spread in a 96-well plate, 90 µL per well, and placed in a 37° C., 5% CO2 incubator overnight; and compound solutions of different concentrations were prepared using DMSO and culture medium; and a solvent control was set, the compound solution was added to a 96-well plate, 10 µL per well, at 37° C. in a 5% CO2 incubator for 72 hours; CellTiter-Glo solution was added thereto and the mixture was mixed well by shaking, incubated for 10 min in the dark, and read by BioTek Synergy H1 microplate reader.
The luminescence signal values were used to calculate the inhibition rate, the concentration and the inhibition rate were fitted to a nonlinear regression curve using Graphpad Prism software.
(In general: Cellular ATP, detected with luciferase, serves as a proxy for viable cell number.)

A short description of series [3]: Balb/C mouse pharmacokinetics, oral. The settings on record: male, mouse, po, Balb/C mice, p.o., 5 mg/kg, plasma. Format: in vivo. The protocol: The pharmacokinetic behavior of the following compound embodiments, administered orally at a dose of 5 mg/kg in plasma in mice, was studied using Balb/C mice as test animals.
Balb/C Mouse 6/embodiment, male, Shanghai Jiesijie Laboratory Animal Co., Ltd, Animal Production License No. (SCXK (Shanghai) 2013-0006 N0.311620400001794).
Balb/C mice, males; p.o. after overnight fasting, respectively, at a dose of 5 mg/kg, administered in a volume of 10 mL/kg.
0.5% CMC-Na(1% Tween80) was dissolved by ultrasound, and prepared into clear solution or uniform suspension.
Before and after administration, 0.1 mL of blood was collected from mice at 0, 0.5, 1, 2, 4, 6, 8 and 24 hours by orbital collection, placed in EDTA-K2 tubes, centrifuged at 6000 rpm at 4° C. for 6 min to separate plasma, and stored at −80° C.
40 μL of plasma sample was precipitated by adding 160 μL of acetonitrile, mixed and centrifuged at 3500×g for 5-20 min.
100 μL of the supernatant solution after treatment was taken to analyze the concentration of the test compound by LC/MS/MS.
The main pharmacokinetic parameters were calculated using WinNonlin 6.1 and the results of the mouse pharmacokinetic experiments were shown in Table 8 below.

For series [4], the system named is phosphorylation of ERK, a downstream signal factor of TT cells. Put plainly: ERK phosphorylation in TT cells (Western Blot). It is filed as cell-based, human. The protocol: In this experiment, the inhibitory effect of compounds on the phosphorylation level of ERK, a downstream signaling factor in TT cells, was measured by Western Blot method. When TT cells were cultured to the appropriate fusion degree, the cells were collected and adjusted to a suitable cell concentration using complete medium, the cell suspension was spread in a 24-well plate, 1 mL per well, and placed in a 37° C., 5% CO2 incubator overnight, and compound dilutions of different concentrations (3.7 nM, 11.1 nM, 33.3 nM, 100 nM, 300 nM) were added at 37° C. and acted for 2 hours; the cell supernatant was aspirated, washed one time with PBS, and the proteins were collected with lysate; after protein denaturation, Western blot experiments were performed: performing protein electrophoresis at 120V for approximately 75 minutes, followed by 45 minutes of transfer to PVDF membranes at 10V with a semi-dry transfer instrument, enclosing at 5% BSA for 1 hour at room temperature, and then PVDF membranes were cut into strips of appropriate size and incubated with prepared antibody dilutions overnight at 4° C. and washed 6 times with TBST, followed by imaging with goat anti-mouse secondary antibody and sheep anti-rabbit secondary antibody for 1 hour at room temperature, and the membrane was washed 6 times with TBST for imaging in the Biorad ChemiDoc™ MP Imaging System.
The inhibitory effect of compounds on ERK phosphorylation levels in TT cells at different concentrations was determined by detecting protein bands.
In general terms: Immunoblotting shows a protein as a band on a membrane.

Series [5] concerns the target T2, RET (Homo sapiens, UniProt P07949).
T2 construct: purchased Carna 08-159
The series can be described thus: HTRF kinase assay, RET wild-type. Format: biochemical. The settings on record: ATP at Km.
From the text: as §1, §2

The target in series [6] is T3, KDR kinase (Homo sapiens, UniProt P35968).
T3 construct: purchased Carna 08-191
Put plainly: HTRF kinase assay, KDR. It is filed as biochemical. As to conditions: for IC50: HTRF, ATP at Km; for Ratio (KDR/RET): KDR IC50 / RET IC50. The text has this:
• KDR kinase was purchased from Carna Company, and the article number was 08-191; • HTRF KinEASE-TK kit was purchased from Cisbio Company, and the article number was 62TK0PEC; • ATP was purchased from Thermofisher Company, and the article number was PV3227; • 384-well plate was purchased from PerkinElmer Company, and the article number was 6007290.
In this experiment, the homogeneous time-resolved fluorescence (HTRF) method was used for the detection of compounds on KDR kinase activity.
(In general: Time-resolved FRET reads energy transfer from a long-lived donor to a nearby acceptor.)

Series [7] concerns the target T4, Ba/F3 KIF5B-RET cells (Homo sapiens, UniProt P07949).
T4 construct: fused on or other part: P33176 (Kinesin-1 heavy chain)
The series can be described thus: Ba/F3 KIF5B-RET cell proliferation (CellTiter-Glo). Format: cell-based. The settings on record: 72 to 144 hours, read-out: Ba/F3 KIF5B-RET IC50. The protocol: When Ba/F3 KIF5B-RET cells were cultured to the appropriate cell density, cells were collected, and the cells were adjusted to the appropriate cell concentration using complete medium, and the cell suspension was spread in a 96-well plate, 90 μL per well, and placed in a 37° C., 5% CO2 incubator for overnight; compound solutions of different concentrations were prepared using DMSO and culture medium; a solvent control was set, and the compound solution was added to a 96-well plate with 10 μL per well at 37° C. in a 5% CO2 incubator for 72 to 144 hours; CellTiter-Glo solution was added thereto and mixed well by shaking, incubated for 10 min in the dark, and read by BioTek Synergy H1 microplate reader.
The luminescence signal values were used to calculate the inhibition rate, the concentrations and the inhibition rates were fitted to a nonlinear regression curve using Graphpad Prism software.

T3 sequence (P35968 20-1356): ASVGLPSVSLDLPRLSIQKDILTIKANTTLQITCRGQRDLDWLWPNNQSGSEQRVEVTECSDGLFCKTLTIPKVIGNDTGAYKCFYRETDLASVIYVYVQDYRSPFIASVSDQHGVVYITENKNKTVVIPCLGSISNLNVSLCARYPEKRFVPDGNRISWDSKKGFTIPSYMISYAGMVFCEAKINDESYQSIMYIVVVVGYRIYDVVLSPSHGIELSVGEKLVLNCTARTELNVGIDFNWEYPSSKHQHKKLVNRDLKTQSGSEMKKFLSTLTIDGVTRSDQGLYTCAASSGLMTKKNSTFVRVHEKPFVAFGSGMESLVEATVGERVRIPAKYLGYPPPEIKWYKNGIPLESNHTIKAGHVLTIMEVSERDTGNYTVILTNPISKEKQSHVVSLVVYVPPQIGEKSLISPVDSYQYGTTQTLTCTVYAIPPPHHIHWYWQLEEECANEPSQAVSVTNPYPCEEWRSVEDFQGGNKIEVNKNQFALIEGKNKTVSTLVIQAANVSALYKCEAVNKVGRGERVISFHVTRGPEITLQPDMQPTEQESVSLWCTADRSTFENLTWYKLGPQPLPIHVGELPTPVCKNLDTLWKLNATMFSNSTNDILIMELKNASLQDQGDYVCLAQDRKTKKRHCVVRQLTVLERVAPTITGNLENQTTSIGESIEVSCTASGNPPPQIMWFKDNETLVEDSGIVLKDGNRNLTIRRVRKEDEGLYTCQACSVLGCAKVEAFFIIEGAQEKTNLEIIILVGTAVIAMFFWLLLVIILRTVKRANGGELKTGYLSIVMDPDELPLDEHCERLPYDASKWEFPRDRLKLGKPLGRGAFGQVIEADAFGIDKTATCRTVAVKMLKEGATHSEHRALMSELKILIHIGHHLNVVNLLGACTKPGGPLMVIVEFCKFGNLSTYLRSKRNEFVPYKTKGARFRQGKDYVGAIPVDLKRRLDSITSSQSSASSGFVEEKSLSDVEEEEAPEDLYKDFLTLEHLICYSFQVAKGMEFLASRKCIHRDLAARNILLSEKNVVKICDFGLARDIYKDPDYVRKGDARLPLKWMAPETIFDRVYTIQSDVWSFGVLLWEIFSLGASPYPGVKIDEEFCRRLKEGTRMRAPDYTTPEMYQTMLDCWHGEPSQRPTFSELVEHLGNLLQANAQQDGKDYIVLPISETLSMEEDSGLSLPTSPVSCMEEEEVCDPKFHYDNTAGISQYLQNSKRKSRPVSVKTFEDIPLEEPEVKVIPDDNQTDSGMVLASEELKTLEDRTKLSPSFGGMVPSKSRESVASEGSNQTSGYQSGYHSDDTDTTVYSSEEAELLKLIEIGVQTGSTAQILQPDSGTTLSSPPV
T4 sequence (P07949 whole entry, change not shown, the tested form may be a part): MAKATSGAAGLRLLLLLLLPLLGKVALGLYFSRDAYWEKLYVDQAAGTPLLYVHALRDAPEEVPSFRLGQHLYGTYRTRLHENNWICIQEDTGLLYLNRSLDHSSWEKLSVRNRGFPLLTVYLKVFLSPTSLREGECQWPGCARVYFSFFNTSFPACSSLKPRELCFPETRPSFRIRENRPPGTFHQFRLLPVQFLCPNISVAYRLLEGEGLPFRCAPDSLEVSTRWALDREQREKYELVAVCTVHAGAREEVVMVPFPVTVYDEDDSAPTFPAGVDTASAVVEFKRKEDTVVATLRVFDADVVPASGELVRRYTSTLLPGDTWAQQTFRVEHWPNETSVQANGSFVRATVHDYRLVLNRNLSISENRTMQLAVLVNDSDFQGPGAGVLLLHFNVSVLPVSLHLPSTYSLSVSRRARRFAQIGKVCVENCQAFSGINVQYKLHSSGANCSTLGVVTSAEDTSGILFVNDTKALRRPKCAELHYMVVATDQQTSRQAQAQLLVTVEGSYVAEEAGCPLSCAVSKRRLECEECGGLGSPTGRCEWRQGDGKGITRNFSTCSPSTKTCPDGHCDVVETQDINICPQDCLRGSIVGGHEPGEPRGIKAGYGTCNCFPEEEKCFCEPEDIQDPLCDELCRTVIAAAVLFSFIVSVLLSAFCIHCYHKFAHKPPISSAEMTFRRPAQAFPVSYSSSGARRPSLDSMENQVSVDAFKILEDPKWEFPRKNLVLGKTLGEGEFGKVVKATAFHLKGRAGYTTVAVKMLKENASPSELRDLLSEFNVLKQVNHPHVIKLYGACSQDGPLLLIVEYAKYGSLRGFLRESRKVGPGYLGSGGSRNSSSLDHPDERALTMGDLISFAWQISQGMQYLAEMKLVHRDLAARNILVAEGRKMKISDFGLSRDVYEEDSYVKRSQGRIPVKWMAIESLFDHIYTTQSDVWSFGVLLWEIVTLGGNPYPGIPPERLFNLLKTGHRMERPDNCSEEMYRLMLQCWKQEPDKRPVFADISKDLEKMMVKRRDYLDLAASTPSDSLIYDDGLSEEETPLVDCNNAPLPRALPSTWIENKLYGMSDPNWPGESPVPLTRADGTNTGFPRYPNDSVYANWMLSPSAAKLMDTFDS
T2 sequence (P07949 29-1114): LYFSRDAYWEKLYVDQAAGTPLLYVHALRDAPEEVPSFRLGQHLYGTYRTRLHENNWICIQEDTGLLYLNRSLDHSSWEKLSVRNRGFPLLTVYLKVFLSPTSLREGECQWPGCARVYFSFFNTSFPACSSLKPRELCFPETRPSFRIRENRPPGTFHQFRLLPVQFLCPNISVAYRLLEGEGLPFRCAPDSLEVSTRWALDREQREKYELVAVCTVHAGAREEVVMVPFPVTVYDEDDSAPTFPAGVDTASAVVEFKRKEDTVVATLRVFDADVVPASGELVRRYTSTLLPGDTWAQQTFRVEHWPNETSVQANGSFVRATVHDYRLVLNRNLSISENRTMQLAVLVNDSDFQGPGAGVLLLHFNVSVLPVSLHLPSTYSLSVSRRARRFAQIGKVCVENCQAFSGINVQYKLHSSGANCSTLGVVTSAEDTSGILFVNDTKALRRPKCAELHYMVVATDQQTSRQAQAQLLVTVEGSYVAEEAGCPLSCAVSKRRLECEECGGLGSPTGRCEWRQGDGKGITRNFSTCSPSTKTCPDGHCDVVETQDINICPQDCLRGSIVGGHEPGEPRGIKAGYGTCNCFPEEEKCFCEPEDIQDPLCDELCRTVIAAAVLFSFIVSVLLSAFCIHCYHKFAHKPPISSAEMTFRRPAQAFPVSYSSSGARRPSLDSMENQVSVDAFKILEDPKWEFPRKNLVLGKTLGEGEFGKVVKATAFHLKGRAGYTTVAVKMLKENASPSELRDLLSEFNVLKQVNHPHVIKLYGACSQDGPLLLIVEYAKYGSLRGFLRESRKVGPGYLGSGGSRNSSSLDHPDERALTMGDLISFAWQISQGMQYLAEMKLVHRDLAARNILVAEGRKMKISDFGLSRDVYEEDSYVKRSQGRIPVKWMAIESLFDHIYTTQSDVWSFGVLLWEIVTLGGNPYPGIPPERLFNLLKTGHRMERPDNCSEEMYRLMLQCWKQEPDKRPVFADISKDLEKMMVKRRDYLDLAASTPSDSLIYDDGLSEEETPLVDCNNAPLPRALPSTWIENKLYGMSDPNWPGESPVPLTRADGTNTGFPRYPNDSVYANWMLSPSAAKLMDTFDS
T1 sequence (P07949 29-1114 M918T): as the sequence (P07949 29-1114) above, with M890T counted along it

As to `COc1ccc(CN2C3CC2CN(c2ccc(-c4cc(OCC5(C#N)CC5)cn5ncc(C#N)c45)cn2)C3)cn1` [Embodiment 106, 6-((1-Cyanocyclopropyl)methoxy)-4-(6-(6-((6-methoxypyridin-3-yl)methyl)-3,6-diazabicyclo[3.1.1]heptan-3-yl)pyridin-3-yl)pyrazolo[1,5-a]pyridine-3-carbonitrile], the values for the IC50 in series [1] and in series [2] were 0.47 nM and 19 nM, respectively. In series [3] (read-out: Average residence time MRT), the MRT stood at 4.71 h. The Cmax in series [3] (read-out: Blood concentration Cmax) stood at 3120 ng/mL. In addition, the AUC(0-t) in series [3] (read-out: Curve area AUC0-t) was 18900 ng·h/mL. Further, in series [3] (read-out: Curve area AUC0-∞), the AUC(0-inf) amounted to 18900 ng·h/mL. The half-life in series [3] (read-out: Half-life t1/2 (converted)) is 2.66 h. For the same molecule, in series [3] (read-out: Peak time tmax), the Tmax was determined as 0.5 h.
`C#C[C@](C)(O)COc1cc(-c2ccc(N3CC4CC(C3)N4Cc3ccc(OC)nc3)nc2)c2c(C#N)cnn2c1` [Embodiment 153, 6-(((S)-2-hydroxy-2-methylbut-3-yn-1-yl)oxy)-4-(6-(6-((6-methoxypyridin-3-yl)methyl)-3,6-diazabicyclo[3.1.1]heptan-3-yl)pyridin-3-yl)pyrazolo[1,5-a]pyridine-3-carbonitrile]: the “inhibition of ERK phosphorylation” value in series [4] (11.1 nM, 2 hours at 37° C., TT cells) is given as “inhibit half of the ERK phosphorylation level”. Moreover, the “inhibition of the phosphorylation level of ERK in TT cells, overall” value in series [4] (3.7-300 nM, 2 hours) is reported as “significantly inhibit”.
Turning to `COc1ncc(CN2C3CC2CN(c2ccc(-c4cc(OC[C@H]5C[C@@](C)(O)C5)cn5ncc(C#N)c45)cn2)C3)cc1F` [Embodiment 161, 4-(6-(6-((5-Fluoro-6-methoxypyridin-3-yl)methyl)-3,6-diazabicyclo[3.1.1]heptan-3-yl)pyridin-3-yl)-6-((cis-3-hydroxy-3-methylcyclobutyl)methoxy)pyrazolo[1,5-a]pyridine-3-carbonitrile], the IC50 amounted to 0.37 nM in series [5], 7.4 nM in series [6] and 13.9 nM in series [2]. Besides, in series [6], the “Ratio (KDR/RET)” value was 20. Moreover, the GI50 in series [7] worked out at 8.59 nM.
The corresponding values for `CC1(NC(=O)c2ncccc2Cl)CCN(c2ccc(-c3cc(C#CC4(O)COC4)cn4ncc(C#N)c34)cn2)CC1` [Embodiment 175, 3-Chloro-N-(1-(5-(3-cyano-6-((3-hydroxyoxetan-3-yl)ethynyl)pyrazolo[1,5-a]pyridin-4-yl)pyridin-2-yl)-4-methylpiperidin-4-yl)picolinamide] are 0.25 nM, 47 nM, 18.5 nM, 185 and 15.5 nM.

What is called IC50 is the concentration that inhibits the measured activity by half. Usually MRT stands for a mean duration of stay, worked out from the concentration-time curve. By Tmax is commonly meant the time at which the peak concentration occurs.

The values are drawn from patent US20260042759A1, “INHIBITOR CONTAINING BICYCLIC DERIVATIVE, PREPARATION METHOD THEREFOR AND USE THEREOF” (SHANGHAI HANSOH BIOMEDICAL CO., LTD., priority 2019, published 2026).
